What all share (assay): AK assay 384-well format, Prestwick library screening
Assay [1] deals with A. baumannii strain 98-37-09. Type of assay: cell-based, Acinetobacter baumannii. The note with it: 50 μM final drug concentration; for fold induction at 50 µM: Acinetobacter baumannii, 983709, 3 h.
Another assay deals with E. faecium. Type of assay: cell-based, Enterococcus faecium. The note with it: 50 μM final drug concentration; for fold induction at 50 µM: Enterococcus faecium, 3 h.
The subject of assay [2] is S. aureus strain USA300-0114. The assay is classed as cell-based, Staphylococcus aureus. The note with it: 50 μM final drug concentration; for fold induction at 50 µM: Staphylococcus aureus, USA300, 3 h.
For another assay, the system named is K. pneumoniae. Type of assay: cell-based, Klebsiella pneumoniae. The note with it: 50 μM final drug concentration; for fold induction at 50 µM: Klebsiella pneumoniae, 3 h.
A further assay deals with E. cloacae. Type of assay: cell-based, Enterobacter cloacae. To be noted: 50 μM final drug concentration; for fold induction at 50 µM: Enterobacter cloacae, 3 h.
A further assay deals with P. aeruginosa. The assay is classed as cell-based, Pseudomonas aeruginosa. To be noted: 50 μM final drug concentration; for fold induction at 50 µM: Pseudomonas aeruginosa, 3 h.
In another assay the test system is E. coli. Type of assay: cell-based, Escherichia coli. To be noted: 50 μM final drug concentration; for fold induction at 50 µM: Escherichia coli, 3 h.
Where [3] appears, read: 384-well format, cutoff for positive-scoring molecules 3-fold increase, read-out: AK-based Prestwick Library Screening Results, A. baumannii (increase in extracellular AK activity).
Setting [4] is: 384-well format, cutoff for positive-scoring molecules 3-fold increase, read-out: AK-based Prestwick Library Screening Results, E. faecium (increase in extracellular AK activity).
Where [5] appears, read: 384-well format, cutoff for positive-scoring molecules 3-fold increase, read-out: AK-based Prestwick Library Screening Results, S. aureus (increase in extracellular AK activity).
The mark [6] stands for this setting: 384-well format, cutoff for positive-scoring molecules 3-fold increase, read-out: AK-based Prestwick Library Screening Results, K. pneumoniae (increase in extracellular AK activity).
Where [7] appears, read: 384-well format, cutoff for positive-scoring molecules 3-fold increase, read-out: AK-based Prestwick Library Screening Results, E. cloacae (increase in extracellular AK activity).
Setting [8] is: 384-well format, cutoff for positive-scoring molecules 3-fold increase, read-out: AK-based Prestwick Library Screening Results, P. aeruginosa (increase in extracellular AK activity).
Where [9] appears, read: 384-well format, cutoff for positive-scoring molecules 3-fold increase, read-out: AK-based Prestwick Library Screening Results, E. coli (increase in extracellular AK activity).

Structures can show the parent of a compound that is named as a salt. Where two headings read alike, the source gives them in different places.

Turning to `Nc1c2c(nc3ccccc13)CCCC2O.O=C(O)/C=C\C(=O)O` (racemic) [Hydroxytacrine maleate (R,S)], the “AK-based Prestwick Library Screening Results, A. baumannii (increase in extracellular AK activity)” value in assay [1] (planktonic A. baumannii, cutoff for positive-scoring molecules 3-fold increase) stood at 1.0. In addition, the “AK-based Prestwick Library Screening Results, E. faecium (increase in extracellular AK activity)” value in the assay on E. faecium (planktonic E. faecium, cutoff for positive-scoring molecules 3-fold increase) worked out at 1.0. In assay [2] (planktonic S. aureus, cutoff for positive-scoring molecules 3-fold increase), the “AK-based Prestwick Library Screening Results, S. aureus (increase in extracellular AK activity)” value stood at 3.0. In addition, in the assay with K. pneumoniae (planktonic K. pneumoniae, cutoff for positive-scoring molecules 3-fold increase), the “AK-based Prestwick Library Screening Results, K. pneumoniae (increase in extracellular AK activity)” value is 1.0. Moreover, the “AK-based Prestwick Library Screening Results, E. cloacae (increase in extracellular AK activity)” value in the assay with E. cloacae (planktonic E. cloacae, cutoff for positive-scoring molecules 3-fold increase) is recorded as 1.3. Moreover, the “AK-based Prestwick Library Screening Results, P. aeruginosa (increase in extracellular AK activity)” value in the assay with P. aeruginosa (planktonic P. aeruginosa, cutoff for positive-scoring molecules 3-fold increase) was 1.0. The “AK-based Prestwick Library Screening Results, E. coli (increase in extracellular AK activity)” value with E. coli (planktonic E. coli, […]) is 1.3.
As to `CC[C@H](CC[C@@H](C)[C@H]1CC[C@H]2[C@@H]3CC=C4C[C@@H](O)CC[C@]4(C)[C@H]3CC[C@]12C)C(C)C` [Beta-sistosterol], the “AK-based Prestwick library screening result, A. baumannii (fold increase in extracellular AK activity)” value in assay [1] (planktonic A. baumannii, […]) was 0.8. Besides, the “AK-based Prestwick library screening result, E. faecium (fold increase in extracellular AK activity)” value in the assay with E. faecium (planktonic E. faecium, […]) worked out at 0.9. Besides, the “AK-based Prestwick library screening result, S. aureus (fold increase in extracellular AK activity)” value in assay [2] (planktonic S. aureus, […]) was 0.7. The “AK-based Prestwick library screening result, K. pneumoniae (fold increase in extracellular AK activity)” value in the assay on K. pneumoniae (planktonic K. pneumoniae, […]) amounted to 0.8. Moreover, the “AK-based Prestwick library screening result, E. cloacae (fold increase in extracellular AK activity)” value with E. cloacae (planktonic E. cloacae, […]) is 1.1. Besides, in the assay with P. aeruginosa (planktonic P. aeruginosa, […]), the “AK-based Prestwick library screening result, P. aeruginosa (fold increase in extracellular AK activity)” value is 0.8. For the same compound, the “AK-based Prestwick library screening result, E. coli (fold increase in extracellular AK activity)” value in the assay on E. coli (planktonic E. coli, […]) is 0.8.
Regarding `NC(=O)CN1CCCC1=O` [Piracetam], the fold induction at 50 µM in assay [1] (planktonic, cutoff for positive 3-fold increase, read-out: AK-based Prestwick Library Screening Results, A. baumannii (fold increase in extracellular AK activity)) turned out to be 0.9; in the assay on E. faecium (planktonic, cutoff for positive 3-fold increase, read-out: AK-based Prestwick Library Screening Results, E. faecium (fold increase in extracellular AK activity)) it was 0.9; in assay [2] (planktonic, cutoff for positive 3-fold increase, read-out: AK-based Prestwick Library Screening Results, S. aureus (fold increase in extracellular AK activity)), 1; in the assay with K. pneumoniae (planktonic, cutoff for positive 3-fold increase, read-out: AK-based Prestwick Library Screening Results, K. pneumoniae (fold increase in extracellular AK activity)) it was 1; in the assay with E. cloacae (planktonic, cutoff for positive 3-fold increase, read-out: AK-based Prestwick Library Screening Results, E. cloacae (fold increase in extracellular AK activity)), 1.4; in the assay on P. aeruginosa (planktonic, cutoff for positive 3-fold increase, read-out: AK-based Prestwick Library Screening Results, P. aeruginosa (fold increase in extracellular AK activity)) it was 1.1. Further, the fold induction at 50 µM with E. coli (planktonic, cutoff for positive 3-fold increase, read-out: AK-based Prestwick Library Screening Results, E. coli (fold increase in extracellular AK activity)) worked out at 1.1.
Turning to `NCCC(=O)NCCc1c[nH]cn1` [Carcinine], the fold induction at 50 µM in assay [1] (planktonic A. baumannii, […], read-out: AK-based Prestwick Library Screening Results, A. baumannii (increase in extracellular AK activity)) was determined as 0.8; with E. faecium (planktonic E. faecium, […], read-out: AK-based Prestwick Library Screening Results, E. faecium (increase in extracellular AK activity)), 0.9; in assay [2] (planktonic S. aureus, […], read-out: AK-based Prestwick Library Screening Results, S. aureus (increase in extracellular AK activity)) it was 0.7; with K. pneumoniae (planktonic K. pneumoniae, […], read-out: AK-based Prestwick Library Screening Results, K. pneumoniae (increase in extracellular AK activity)), 0.6; in the assay on E. cloacae (planktonic E. cloacae, […], read-out: AK-based Prestwick Library Screening Results, E. cloacae (increase in extracellular AK activity)) it was 0.8; in the assay on P. aeruginosa (planktonic P. aeruginosa, […], read-out: AK-based Prestwick Library Screening Results, P. aeruginosa (increase in extracellular AK activity)) it was 0.8. Also, in the assay on E. coli (planktonic E. coli, […], read-out: AK-based Prestwick Library Screening Results, E. coli (increase in extracellular AK activity)), the fold induction at 50 µM was 0.8.
Regarding `COc1ccc(CC2c3cc(OC)c(OC)cc3CC[N+]2(C)CCC(=O)OCCCCCOC(=O)CC[N+]2(C)CCc3cc(OC)c(OC)cc3C2Cc2ccc(OC)c(OC)c2)cc1OC` (centres unmarked) [Atracurium besylate], the fold induction at 50 µM in assay [1] (setting [3]) stood at 0.4; in the assay on E. faecium (setting [4]) it was 0.8; in assay [2] (setting [5]), 0.5; in the assay with K. pneumoniae (setting [6]), 0.5; in the assay on E. cloacae (setting [7]) it was 0.3; in the assay with P. aeruginosa (setting [8]), 0.4. In the assay on E. coli (setting [9]), the fold induction at 50 µM is 0.5.
With `COc1ccc(Cl)cc1C(=O)NCCc1ccc(S(=O)(=O)NC(=O)NC2CCCCC2)cc1` [Glibenclamide], the fold induction at 50 µM came to 1.3 in assay [1] (planktonic A. baumannii, 384-well, cutoff for positive-scoring molecules 3-fold increase, read-out: AK-based Prestwick Library Screening Results: A. baumannii (increase in extracellular AK activity)); 1 in the assay with E. faecium (planktonic E. faecium, 384-well, cutoff for positive-scoring molecules 3-fold increase, read-out: AK-based Prestwick Library Screening Results: E. faecium (increase in extracellular AK activity)); 0.9 in assay [2] (planktonic S. aureus, 384-well, cutoff for positive-scoring molecules 3-fold increase, read-out: AK-based Prestwick Library Screening Results: S. aureus (increase in extracellular AK activity)); 1.1 in the assay on K. pneumoniae (planktonic K. pneumoniae, 384-well, cutoff for positive-scoring molecules 3-fold increase, read-out: AK-based Prestwick Library Screening Results: K. pneumoniae (increase in extracellular AK activity)); 1.4 in the assay on E. cloacae (planktonic E. cloacae, 384-well, cutoff for positive-scoring molecules 3-fold increase, read-out: AK-based Prestwick Library Screening Results: E. cloacae (increase in extracellular AK activity)); 1.2 in the assay with P. aeruginosa (planktonic P. aeruginosa, 384-well, cutoff for positive-scoring molecules 3-fold increase, read-out: AK-based Prestwick Library Screening Results: P. aeruginosa (increase in extracellular AK activity)). In addition, in the assay on E. coli (planktonic E. coli, 384-well, cutoff for positive-scoring molecules 3-fold increase, read-out: AK-based Prestwick Library Screening Results: E. coli (increase in extracellular AK activity)), the fold induction at 50 µM was 1.2.
Turning to `Nc1nc2ccc(OC(F)(F)F)cc2s1` [Riluzole hydrochloride], the fold induction at 50 µM is 0.2 in assay [1] (setting [3]); 0.3 in the assay with E. faecium (setting [4]); 0.2 in assay [2] (setting [5]); 0.2 with K. pneumoniae (setting [6]); 0.5 with E. cloacae (setting [7]); 0.2 in the assay on P. aeruginosa (setting [8]). Further, in the assay with E. coli (setting [9]), the fold induction at 50 µM is 0.2.
In the case of `CO[C@@]1(NC(=O)CSCC#N)C(=O)N2C(C(=O)O)=C(CSc3nnnn3C)CS[C@@H]21` [Cefmetazole sodium salt], the fold induction at 50 µM in assay [1] (cutoff for positive-scoring molecules 3-fold increase, read-out: AK-based Prestwick Library Screening Results, A. baumannii (fold increase in extracellular AK activity)) was found to be 1.4; with E. faecium (cutoff for positive-scoring molecules 3-fold increase, read-out: AK-based Prestwick Library Screening Results, E. faecium (fold increase in extracellular AK activity)), 1.4; in assay [2] (cutoff for positive-scoring molecules 3-fold increase, read-out: AK-based Prestwick Library Screening Results, S. aureus (fold increase in extracellular AK activity)) it was 5; with K. pneumoniae (cutoff for positive-scoring molecules 3-fold increase, read-out: AK-based Prestwick Library Screening Results, K. pneumoniae (fold increase in extracellular AK activity)), 4.6; in the assay on E. cloacae (cutoff for positive-scoring molecules 3-fold increase, read-out: AK-based Prestwick Library Screening Results, E. cloacae (fold increase in extracellular AK activity)), 1.6; with P. aeruginosa (cutoff for positive-scoring molecules 3-fold increase, read-out: AK-based Prestwick Library Screening Results, P. aeruginosa (fold increase in extracellular AK activity)), 1. Further, the fold induction at 50 µM in the assay with E. coli (cutoff for positive-scoring molecules 3-fold increase, read-out: AK-based Prestwick Library Screening Results, E. coli (fold increase in extracellular AK activity)) was found to be 20.

The record behind these values is patent US10004701B2, “Methods and compositions for treating infection” (UNIVERSITY OF ROCHESTER, priority 2012, dated 2018).
